Holding throughout (type): cell-based
Assay [1] deals with Ba/F3 cells expressing EGFR-wt. The assay can be described thus: Growth inhibition (GI50) of Ba/F3 cells expressing EGFR-wt, Celltiter glo. Particulars: Mus musculus, BaF3, 72 h. Put shortly:
(§1)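 Ba/F3 cells carrying each EGFR variant were plated at 100,000 cells/ml; after 4 h, compound was added as 10-point 4-fold dilutions (top stock 2 mM, 0.5% DMSO). After 72 h at 37 °C, viability was read by CellTiter-Glo; GI50 is the molar concentration (μM) giving 50% growth inhibition.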
For orientation: ATP-based viability assays read luminescence as a measure of living cells.

In assay [2] the test system is Ba/F3 cells expressing del19/T790M/C797S (EGFR-DTC). The assay can be described thus: Growth inhibition (GI50) of Ba/F3 cells expressing del19/T790M/C797S (EGFR-DTC), Celltiter glo. The settings on record: Mus musculus, BaF3, 72 h. The essentials:
as §1

The subject of assay [3] is Ba/F3 cells expressing L858R/T790M/C797S (EGFR-LTC). The assay can be described thus: Growth inhibition (GI50) of Ba/F3 cells expressing L858R/T790M/C797S (EGFR-LTC), Celltiter glo. Particulars: Mus musculus, BaF3, 72 h. Put shortly:
as §1

For assay [4], the system named is Ba/F3 cells expressing del19/T790M (EGFR-DT). The assay can be described thus: Growth inhibition (GI50) of Ba/F3 cells expressing del19/T790M (EGFR-DT), Celltiter glo. Particulars: Mus musculus, BaF3, 72 h. The protocol: (§2) In this experimental example, a determination was made as to whether the compounds prepared in Examples 1-283 have the ability to inhibit the growth of Ba/F3 cells expressing EGFR-wt, del19/T790M/C797S (EGFR-DTC), L858R/T790M/C797S (EGFR-LTC), del19/T790M (EGFR-DT), and L858R/T790M (EGFR-LT) variants.
(§3) The parental Ba/F3 cell line is a population of cells that are not introduced with EGFR variants. Specifically, 100 μl of a cell line expressing each variant was plated in a 96-well plate at a density of 100,000 cells/ml. 10-point, 4-fold serial dilutions of each compound were prepared, starting at 2 mM. After 4 h, 0.5 μl of the compound (0.5% DMSO) was added, followed by incubation at 37° C. and 5% CO2 for 72 h. After incubation, the number of viable cells was measured using a Celltiter glo assay kit (Promega) and the GI50 of the compound was determined. The term “GI50” refers to the molar concentration (μM) of the compound required for 50% growth inhibition of cells.

For assay [5], the system named is Ba/F3 cells expressing L858R/T790M (EGFR-LT). The assay can be described thus: Growth inhibition (GI50) of Ba/F3 cells expressing L858R/T790M (EGFR-LT), Celltiter glo. Particulars: Mus musculus, BaF3, 72 h. The protocol: as §2, §3
The test system of another assay is parental Ba/F3 cell line. The assay can be described thus: Growth inhibition (GI50) of the parental Ba/F3 cell line (not introduced with EGFR variants), Celltiter glo. The settings on record: Mus musculus, BaF3, 72 h, parental Ba/F3 cells. The essentials:
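Parental Ba/F3 cells (100,000 cells/ml) were treated with 10-point, 4-fold compound dilutions (0.5% DMSO; top stock 2 mM) for 72 h at 37 °C, 5% CO2. Viability was read by CellTiter-Glo; GI50 is the concentration (μM) giving 50% growth inhibition.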

With `CN1CCN(C2CCN(c3ccc4cc(Nc5ncc(Cl)c(Nc6cc7c(cc6NS(C)(=O)=O)CCO7)n5)ccc4n3)CC2)CC1` [Example 223, N-(6-((5-chloro-2-((2-(4-(4-methylpiperazin-1-yl)piperidin-1-yl)quinolin-6-yl)amino)pyrimidin-4-yl)amino)-2,3-dihydrobenzofuran-5-yl)methanesulfonamide], the GI50 in assay [1] lay in the range of 2000 to 10000 nM; in assay [2], 500 to 2000 nM; in assay [3], 500 to 2000 nM; in assay [4] it was 100 to 500 nM; in assay [5], 100 to 500 nM; in the assay with parental Ba/F3 cell line it was 2000 to 10000 nM.
Regarding `COc1cc(N2CCC(N3CCN(C)CC3)CC2)c(Cl)cc1Nc1ncc(Br)c(Nc2cc(Cl)c(F)cc2NS(C)(=O)=O)n1` [Example 178, N-(2-((5-bromo-2-((5-chloro-2-methoxy-4-(4-(4-methylpiperazin-1-yl)piperidin-1-yl)phenyl)amino)pyrimidin-4-yl)amino)-4-chloro-5-fluorophenyl)methanesulfonamide], the 50% growth inhibitory concentration (GI50) in assay [1] lay within 500 to 2000 nM; in assay [2] it was 1 to 25 nM; in assay [3], 25 to 100 nM; in assay [4] it was 25 to 100 nM; in assay [5] it was 25 to 100 nM; with parental Ba/F3 cell line, 2000 to 10000 nM.
Consider `COc1cc(N2CCC(N3CCN(C)CC3)CC2)c(C)cc1Nc1nnc(Cl)c(Nc2cc(Cl)ccc2NS(C)(=O)=O)n1` [Example 152, N-(4-chloro-2-((6-chloro-3-((-2-methoxy-5-methyl-4-(4-(4-methylpiperazin-1-yl)piperidin-1-yl)phenyl)amino)-1,2,4-triazin-5-yl)amino)phenyl)methanesulfonamide], for which the GI50 in assay [1] is 100 to 500 nM; in assay [2], 1 to 25 nM; in assay [3] it was 1 to 25 nM; in assay [4], 1 to 25 nM; in assay [5], 1 to 25 nM; in the assay on parental Ba/F3 cell line, 500 to 2000 nM.
`COc1cc(N2CCC(N3CCN(C)CC3)CC2)c(C)cc1Nc1ncc(Cl)c(Nc2cc(Cl)c(F)cc2NS(C)(=O)=O)n1` [Example 176, N-(4-chloro-2-((5-chloro-2-((2-methoxy-5-methyl-4-(4-(4-methylpiperazin-1-yl)piperidin-1-yl)phenyl)amino)pyrimidin-4-yl)amino)-5-fluorophenyl)methanesulfonamide]: the GI50 in assay [1] was 100 to 500 nM; in assay [2], 1 to 25 nM; in assay [3], 1 to 25 nM; in assay [4], 25 to 100 nM; in assay [5], 25 to 100 nM; in the assay with parental Ba/F3 cell line, 500 to 2000 nM.
Consider `COc1cc(N2CCC(N3CCCN(C)CC3)CC2)c(C)cc1Nc1ncc(Br)c(Nc2cc(Cl)ccc2NS(C)(=O)=O)n1` [Example 89], for which the GI50 in assay [1] lay within 100 to 500 nM; in assay [2] it was 1 to 25 nM; in assay [3] it was 1 to 25 nM; in assay [4], 25 to 100 nM; in assay [5], 1 to 25 nM; in the assay on parental Ba/F3 cell line, 500 to 2000 nM.
Consider `Cc1cc(Nc2ncc(Cl)c(Nc3ccc4c(c3)NCC4)n2)c(Cl)cc1N1CCC(N2CCN(C)CC2)CC1` [Example 277], for which the concentration for 50% growth inhibition (GI50) is more than 10000 nM in assay [1]; more than 10000 nM in assay [2]; more than 10000 nM in assay [3]; 2000 to 10000 nM in assay [4]; 2000 to 10000 nM in assay [5]; 2000 to 10000 nM in the assay on parental Ba/F3 cell line.
In the case of `COc1cc(N2CCC(N3CCCC(N(C)C)C3)CC2)c(Br)cc1Nc1ncc(Cl)c(Nc2cc3c(cc2NS(C)(=O)=O)CCO3)n1` (stereo not drawn) [Example 280, N-(6-((2-((5-bromo-4-(3-(dimethylamino)-[1,4′-bipiperidin]-1′-yl)-2-methoxyphenyl)amino)-5-chloropyrimidin-4-yl)amino)-2,3-dihydrobenzofuran-5-yl)methanesulfonamide], the concentration for 50% growth inhibition (GI50) was 25 to 100 nM in assay [1]; 100 to 500 nM in assay [2]; 1 to 25 nM in assay [3]; 1 to 25 nM in assay [4]; 1 to 25 nM in assay [5]; 2000 to 10000 nM with parental Ba/F3 cell line.
In the case of `COc1nc(N2CCC(N3CCN(C)CC3)CC2)ccc1Nc1ncc(Cl)c(N(c2ccc3scnc3c2NS(C)(=O)=O)S(C)(=O)=O)n1` [Example 111, N-(5-chloro-2-((2-methoxy-6-(4-(4-methylpiperazin-1-yl)piperidin-1-yl)pyridin-3-yl)amino)pyrimidin-4-yl)-N-(4-(methylsulfonamido)benzo[d]thiazol-5-yl)methanesulfonamide], the 50% growth inhibitory concentration (GI50) is 2000 to 10000 nM in assay [1]; 500 to 2000 nM in assay [2]; 500 to 2000 nM in assay [4]; 2000 to 10000 nM in assay [5]; 2000 to 10000 nM in the assay with parental Ba/F3 cell line.
Take `COc1cc(N2CCC(N3CCN(C)CC3)CC2)c(Cl)cc1Nc1ncc(Cl)c(Nc2cc(Cl)ccc2NS(C)(=O)=O)n1` [Example 151, N-(4-chloro-2-((5-chloro-2-((5-chloro-2-methoxy-4-(4-(4-methylpiperazin-1-yl)piperidin-1-yl)phenyl)amino)pyrimidin-4-yl)amino)phenyl)methanesulfonamide]: the GI50 in assay [1] lay in the range of 100 to 500 nM; in assay [2], 1 to 25 nM; in assay [3] it was 1 to 25 nM; in assay [4], 1 to 25 nM; in assay [5], 1 to 25 nM.
On to `CN1CCN(C2CCN(c3ccc4cc(Nc5ncc(Br)c(Nc6ccc(F)cc6NS(C)(=O)=O)n5)ccc4n3)CC2)CC1` [Example 35, N-(2-((5-bromo-2-((2-(4-(4-methylpiperazin-1-yl)piperidin-1-yl)quinolin-6-yl)amino)pyrimidin-4-yl)amino)-5-fluorophenyl)methanesulfonamide], for which the concentration for 50% growth inhibition (GI50) lay in the range of 100 to 500 nM in assay [1], 25 to 100 nM in assay [2], 25 to 100 nM in assay [3] and 100 to 500 nM with parental Ba/F3 cell line.
Consider `COc1nc(N2CCC(N3CCN(C)CC3)CC2)c(C)cc1Nc1ncc(Cl)c(Nc2cc(Cl)ccc2NS(C)(=O)=O)n1` [Example 83, N-(4-chloro-2-((5-chloro-2-((2-methoxy-5-methyl-6-(4-(4-methylpiperazin-1-yl)piperidin-1-yl)pyridin-3-yl)amino)pyrimidin-4-yl)amino)phenyl)methanesulfonamide], for which the 50% growth inhibitory concentration (GI50) in assay [1] lay within 500 to 2000 nM; in assay [2], 100 to 500 nM; in assay [3], 100 to 500 nM; in the assay on parental Ba/F3 cell line it was 2000 to 10000 nM.
For the compound `COc1cc(N2CCC(N3CCN(C)CC3)CC2)c(C)cc1Nc1ncc(Cl)c(N(c2ccc3scnc3c2NS(C)(=O)=O)S(C)(=O)=O)n1` [Example 110, N-(5-chloro-2-((2-methoxy-5-methyl-4-(4-(4-methylpiperazin-1-yl)piperidin-1-yl)phenyl)amino)pyrimidin-4-yl)-N-(4-(methylsulfonamido)benzo[d]thiazol-5-yl)methanesulfonamide], the GI50 in assay [1] is 100 to 500 nM; in assay [2], 100 to 500 nM; in assay [3], 25 to 100 nM; in the assay with parental Ba/F3 cell line it was 500 to 2000 nM.
On to `COc1cc(N2CCC(N3CCN(C)CC3)CC2)c(C)cc1Nc1ncc(Cl)c(N(C)c2ccccc2N(C)S(C)(=O)=O)n1` [Example 11], for which the concentration for 50% growth inhibition (GI50) in assay [1] lay in the range of 2000 to 10000 nM; in assay [2], 500 to 2000 nM; in assay [3], 500 to 2000 nM; in the assay with parental Ba/F3 cell line, 500 to 2000 nM.
`COc1nc(N2CCC(N3CCN(C)CC3)CC2)c(C)cc1Nc1ncc(Cl)c(Nc2ccc3ncccc3c2NS(C)(=O)=O)n1` [Example 116, N-(6-((5-chloro-2-((2-methoxy-5-methyl-6-(4-(4-methylpiperazin-1-yl)piperidin-1-yl)pyridin-3-yl)amino)pyrimidin-4-yl)amino)quinolin-5-yl)methanesulfonamide]: the GI50 in assay [1] fell in the range of 500 to 2000 nM; in assay [2], 25 to 100 nM; in assay [3], 100 to 500 nM; in the assay with parental Ba/F3 cell line it was 2000 to 10000 nM.
With `CC(=O)Nc1ccccc1Nc1nc(Nc2ccc(N3CCC(N4CCN(C)CC4)CC3)c(F)c2)ncc1Cl` [Example 69, N-(2-((5-chloro-2-((3-fluoro-4-(4-(4-methylpiperazin-1-yl)piperidin-1-yl)phenyl)amino)pyrimidin-4-yl)amino)phenyl)acetamide], the 50% growth inhibitory concentration (GI50) in assay [1] fell in the range of 25 to 100 nM; in assay [2], 1 to 25 nM; in assay [3] it was 1 to 25 nM; in the assay with parental Ba/F3 cell line, 1 to 25 nM.
Regarding `COc1nc(N2CCS(=O)(=O)CC2)ccc1Nc1ncc(Cl)c(Nc2ccc3nccnc3c2P(C)(C)=O)n1` [Example 129, 4-(5-((5-chloro-4-((5-(dimethylphosphoryl)quinoxalin-6-yl)amino)pyrimidin-2-yl)amino)-6-methoxypyridin-2-yl)thiomorpholine 1,1-dioxide], the GI50 in assay [1] was 2000 to 10000 nM; in assay [2], 2000 to 10000 nM; in assay [3], 2000 to 10000 nM; in the assay on parental Ba/F3 cell line, more than 10000 nM.
As to `COc1cc(N2CCC(N3CCN(C)CC3)CC2)c(C)cc1Nc1ncc(Cl)c(Nc2cc(Cl)ccc2-c2c[nH]nn2)n1` [Example 166], the concentration for 50% growth inhibition (GI50) in assay [1] is 100 to 500 nM; in assay [2], 1 to 25 nM; in assay [3], 1 to 25 nM; with parental Ba/F3 cell line, 500 to 2000 nM.

Usually GI50 stands for the concentration at which growth is held to half of that of the control.

These data come from US20240228458A1, “PYRIMIDINE DERIVATIVE HAVING PROTEIN KINASE INHIBITORY ACTIVITY, AND THERAPEUTIC PHARMACEUTICAL COMPOSITION COMPRISING SAME” (THERAPEX CO., LTD., priority 2021, published 2024).
